The target of assay [1] is Induced myeloid leukemia cell differentiation protein Mcl-1 (Homo sapiens, UniProt Q07820). The assay is described as follows: Inhibition of 6-carboxyfluorescein succinimidyl ester fluorescence tagged-Bid BH3 peptide (79 to 99 residues) binding to Mcl-1 (unknown origin) after 30 mins by fluorescence polarization assay.
Assay [2] has as its target Apoptosis regulator Bcl-2 (Homo sapiens, UniProt P10415). The assay can be described thus: Inhibition of 6-carboxyfluorescein succinimidyl ester fluorescence tagged-Bid BH3 peptide (79 to 99 residues) binding to Bcl-2 (unknown origin) after 30 mins by fluorescence polarization assay.

Each structure is given as a SMILES string. Some results are limits rather than exact numbers.

Sequence of Induced myeloid leukemia cell differentiation protein Mcl-1 (Q07820 whole entry, the tested form may be a part): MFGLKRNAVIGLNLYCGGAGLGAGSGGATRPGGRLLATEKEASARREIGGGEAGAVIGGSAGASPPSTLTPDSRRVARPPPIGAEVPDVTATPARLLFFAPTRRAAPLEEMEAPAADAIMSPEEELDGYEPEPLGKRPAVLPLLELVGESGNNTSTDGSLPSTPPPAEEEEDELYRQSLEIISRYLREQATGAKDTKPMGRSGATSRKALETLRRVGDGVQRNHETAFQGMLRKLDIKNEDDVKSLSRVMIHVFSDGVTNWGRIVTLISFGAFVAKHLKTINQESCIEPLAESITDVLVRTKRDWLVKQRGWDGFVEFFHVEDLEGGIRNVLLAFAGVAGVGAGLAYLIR
Sequence of Apoptosis regulator Bcl-2 (P10415 whole entry, the tested form may be a part): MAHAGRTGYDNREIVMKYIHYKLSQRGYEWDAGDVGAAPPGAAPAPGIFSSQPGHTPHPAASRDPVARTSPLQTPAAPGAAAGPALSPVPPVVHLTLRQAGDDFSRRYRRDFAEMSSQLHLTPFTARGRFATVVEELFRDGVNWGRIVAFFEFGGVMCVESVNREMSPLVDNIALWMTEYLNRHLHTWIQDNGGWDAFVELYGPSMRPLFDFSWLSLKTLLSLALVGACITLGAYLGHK

For `Cc1cc(OCCCn2ccc3ccc(OCCO)cc32)cc(C)c1Cl`, in assay [1], the affinity, expressed as Ki, was 2.1 µM.

Turning to `CNC(=O)c1cc2ccc(OCc3ccccc3C(=O)O)cc2n1CCCOc1cc(C)c(Cl)c(C)c1`, the inhibition constant (Ki) in assay [2] is 0.81 µM; in assay [1], 0.89 µM.

With `Cc1cc(OCCCn2c(C(=O)N(C)C)cc3ccc(OCc4ccccc4C(=O)O)cc32)cc(C)c1Cl`, the Ki in assay [2] was found to be 0.73 µM; in assay [1], 0.57 µM.

As for `COc1ccc(OCCCn2c(C(N)=O)cc3ccc(OCC(=O)O)cc32)cc1`, in assay [1], the Ki was 7.78 µM.

Consider `O=C(O)COc1ccc2ccn(CCCOc3ccccc3)c2c1`, for which, in assay [1], the Ki is > 30 µM.

Regarding `Cc1cc(OCCCn2ccc3cc(OCC(=O)O)ccc32)cc(C)c1Cl`, in assay [1], the Ki was 1.49 µM.

As for `CC(C)(C)Oc1ccc(OCCCn2ccc3ccc(OCC(=O)O)cc32)cc1`, the Ki in assay [1] was found to be 1.87 µM.

In the case of `Cc1cc(OCCCn2ccc3c(OCc4ccccc4C(=O)O)cccc32)cc(C)c1Cl`, the figures for the Ki in assay [2] and in assay [1] were 0.23 µM and 0.14 µM, respectively.

In turn, `Cc1cc(OCCCn2ccc3ccc(C(=O)O)cc32)cc(C)c1Cl` returned a Ki in assay [1] of 3 µM.

For the compound `Cc1cc(OCCCn2ccc3c(OCc4cccc(C(=O)O)c4)cccc32)cc(C)c1Cl`, the inhibitory constant (Ki) in assay [2] amounted to 0.14 µM; in assay [1], 0.15 µM.

For the compound `CC(C)(C)Oc1ccc(OCCCn2c(C(N)=O)cc3ccc(OCC(=O)O)cc32)cc1`, affinity in assay [1] was put at a Ki of 5.38 µM.

`Cc1cc(OCCCn2ccc3ccc(OCC(=O)O)cc32)cc(C)c1Cl`: in assay [1], the Ki was 1.5 µM.

Consider `Cc1cc(OCCCn2ccc3ccc(OCc4cccc(C(=O)O)c4)cc32)cc(C)c1Cl`, for which the Ki in assay [2] came out at 1.19 µM; in assay [1], 0.74 µM.

On to `Cc1cc(OCCCn2ccc3ccc(OCC(=O)O)cc32)ccc1Cl`, for which, in assay [1], the Ki was 9.89 µM.

Take `CC(C)(C)c1ccc(OCCCn2ccc3cc(OCc4cccc(C(=O)O)c4)ccc32)cc1`: the inhibition constant Ki stood at 0.47 µM in assay [2] and 0.25 µM in assay [1].

Turning to `Cc1cc2c(C(C)C)c(O)c(O)c(C=O)c2c(O)c1-c1c(C)cc2c(C(C)C)c(O)c(O)c(C=O)c2c1O` [GOSSYPOL], the Ki in assay [1] was 0.2 µM.

On to `Cc1cc(OCCCn2c(C(=O)N3CCCCC3)cc3ccc(OCc4ccccc4C(=O)O)cc32)cc(C)c1Cl`, for which the Ki in assay [2] was determined as 0.27 µM; in assay [1], 0.2 µM.

For `Cc1cc(C)cc(OCCCn2ccc3ccc(OCC(=O)O)cc32)c1`, the inhibition constant Ki in assay [1] was found to be 12.5 µM.

In assay [1], `Cc1cc(OCCCn2ccc3ccc(OCCCC(=O)O)cc32)cc(C)c1Cl` showed a Ki of 2.68 µM.

As for `Cc1cc(OCCCn2ccc3ccccc32)cc(C)c1Cl`, in assay [1], the inhibition constant Ki was > 30 µM.

The compound `Cc1cc(OCCCn2ccc3c(OCC(=O)O)cccc32)cc(C)c1Cl` came in with a Ki in assay [1] of 2 µM.

In turn, `O=C(O)COc1ccc2ccn(CCCOc3cccc4ccccc34)c2c1` yielded a Ki in assay [1] of 2.57 µM.

Regarding `Cc1cc(OCCCn2ccc3cc(OCc4ccc(C(=O)O)cc4)ccc32)cc(C)c1Cl`, the Ki in assay [2] worked out at 1.41 µM; in assay [1], 1.63 µM.

As for `Cc1cc(OCCCn2ccc3ccc(OCc4ccccc4C(=O)O)cc32)cc(C)c1Cl`, the figures for the Ki in assay [2] and in assay [1] were 1.05 µM and 0.8 µM, respectively.

On to `CC(C)(C)c1ccc(OCCCn2c(C(=O)N3CCCCC3)cc3ccc(OCc4ccccc4C(=O)O)cc32)cc1`, for which the results for the Ki in assay [2] and in assay [1] were 0.15 µM and 0.36 µM, respectively.

With `Cc1cc(OCCCn2ccc3ccc(OCc4ccc(C(=O)O)cc4)cc32)cc(C)c1Cl`, the Ki in assay [2] came out at 1.24 µM; in assay [1], 1.19 µM.

Turning to `Cc1cc(OCCCn2ccc3cc(OCc4cccc(C(=O)O)c4)ccc32)cc(C)c1Cl`, the Ki in assay [2] is 0.41 µM; in assay [1] it was 0.2 µM.

With `CC(C)(C)c1ccc(SCCCn2ccc3ccc(OCC(=O)O)cc32)cc1`, in assay [1], the Ki was 2.38 µM.

For `O=C(O)COc1ccc2ccn(CCCOc3ccc(Cl)cc3)c2c1`, the affinity in assay [1], expressed as Ki, was 12.9 µM.

Turning to `NC(=O)c1cc2ccc(OCC(=O)O)cc2n1CCCOc1ccc(Oc2ccccc2)cc1`, the inhibition constant (Ki) in assay [1] was found to be 4.13 µM.

In turn, `CCOC(=O)COc1ccc2ccn(CCCOc3cc(C)c(Cl)c(C)c3)c2c1` returned a Ki in assay [1] of 3.37 µM.

`CC(C)(C)c1ccc(OCCCn2ccc3cc(OCc4ccccc4C(=O)O)ccc32)cc1`: the figures for the inhibitory constant (Ki) in assay [2] and in assay [1] were 0.17 µM and 0.31 µM, respectively.

With `O=C(O)COc1ccc2ccn(CCCOc3ccc(Oc4ccccc4)cc3)c2c1`, the Ki in assay [1] came out at 3.24 µM.

Turning to `Cc1cccc(OCCCn2ccc3ccc(OCC(=O)O)cc32)c1`, the Ki in assay [1] was > 30 µM.

On to `Cc1cc(OCCCn2ccc3cc(OCc4ccccc4C(=O)O)ccc32)cc(C)c1Cl`, for which the values for the Ki in assay [2] and in assay [1] were 0.76 µM and 0.11 µM, respectively.

Consider `CCOC(=O)c1ccc2ccn(CCCOc3cc(C)c(Cl)c(C)c3)c2c1`, for which the Ki in assay [1] is > 30 µM.

`Cc1cc(OCCn2ccc3ccc(OCC(=O)O)cc32)cc(C)c1Cl` returned a Ki in assay [1] of 11.6 µM.

As for `Cc1ccc2ccn(CCCOc3cc(C)c(Cl)c(C)c3)c2c1`, the Ki in assay [1] was > 30 µM.

For the compound `CC(C)(C)c1ccc(OCCn2ccc3ccc(OCC(=O)O)cc32)cc1`, the Ki in assay [1] turned out to be 8.19 µM.

As to `Cc1cc(OCCCn2c(C(N)=O)cc3ccc(OCc4ccccc4C(=O)O)cc32)cc(C)c1Cl`, the Ki in assay [2] turned out to be 0.85 µM; in assay [1] it was 0.95 µM.

Compound `NC(=O)c1cc2ccc(OCC(=O)O)cc2n1CCCOc1cccc2ccccc12` yielded a Ki in assay [1] of 10.3 µM.

The compound `COc1ccc(OCCCn2ccc3ccc(OCC(=O)O)cc32)cc1` yielded a Ki in assay [1] of 4.42 µM.

The values above are taken from ChEMBL document CHEMBL4014295, “Discovery and structure-activity relationship studies of N-substituted indole derivatives as novel Mcl-1 inhibitors” (Bioorg Med Chem Lett, 2017).
